Measurements: patent US20260092071A1, “COMPOUNDS AND COMPOSITIONS AS SMARCA2/4 DEGRADERS AND USES THEREOF” (REGENTS OF THE UNIVERSITY OF MICHIGAN, priority 2022, published 2026)

Key:
[1] = biological target: SMARCA2 (Homo sapiens, UniProt P51531); assay: HiBit assay in engineered HT1080 CRISPR knock-in cell, 6 hrs (B series), SMARCA2; format: cell-based; conditions: 6 hrs incubation; for DC50: HT1080 CRISPR knock-in cells, read-out: SMARC A2 HT1080 HiBit DC50; for Dmax: HT-1080, HT1080 CRISPR knock-in cells, read-out: SMARC A2 HT1080 HiBit Dmax (%)
Sequence of SMARCA2 (P51531 whole entry): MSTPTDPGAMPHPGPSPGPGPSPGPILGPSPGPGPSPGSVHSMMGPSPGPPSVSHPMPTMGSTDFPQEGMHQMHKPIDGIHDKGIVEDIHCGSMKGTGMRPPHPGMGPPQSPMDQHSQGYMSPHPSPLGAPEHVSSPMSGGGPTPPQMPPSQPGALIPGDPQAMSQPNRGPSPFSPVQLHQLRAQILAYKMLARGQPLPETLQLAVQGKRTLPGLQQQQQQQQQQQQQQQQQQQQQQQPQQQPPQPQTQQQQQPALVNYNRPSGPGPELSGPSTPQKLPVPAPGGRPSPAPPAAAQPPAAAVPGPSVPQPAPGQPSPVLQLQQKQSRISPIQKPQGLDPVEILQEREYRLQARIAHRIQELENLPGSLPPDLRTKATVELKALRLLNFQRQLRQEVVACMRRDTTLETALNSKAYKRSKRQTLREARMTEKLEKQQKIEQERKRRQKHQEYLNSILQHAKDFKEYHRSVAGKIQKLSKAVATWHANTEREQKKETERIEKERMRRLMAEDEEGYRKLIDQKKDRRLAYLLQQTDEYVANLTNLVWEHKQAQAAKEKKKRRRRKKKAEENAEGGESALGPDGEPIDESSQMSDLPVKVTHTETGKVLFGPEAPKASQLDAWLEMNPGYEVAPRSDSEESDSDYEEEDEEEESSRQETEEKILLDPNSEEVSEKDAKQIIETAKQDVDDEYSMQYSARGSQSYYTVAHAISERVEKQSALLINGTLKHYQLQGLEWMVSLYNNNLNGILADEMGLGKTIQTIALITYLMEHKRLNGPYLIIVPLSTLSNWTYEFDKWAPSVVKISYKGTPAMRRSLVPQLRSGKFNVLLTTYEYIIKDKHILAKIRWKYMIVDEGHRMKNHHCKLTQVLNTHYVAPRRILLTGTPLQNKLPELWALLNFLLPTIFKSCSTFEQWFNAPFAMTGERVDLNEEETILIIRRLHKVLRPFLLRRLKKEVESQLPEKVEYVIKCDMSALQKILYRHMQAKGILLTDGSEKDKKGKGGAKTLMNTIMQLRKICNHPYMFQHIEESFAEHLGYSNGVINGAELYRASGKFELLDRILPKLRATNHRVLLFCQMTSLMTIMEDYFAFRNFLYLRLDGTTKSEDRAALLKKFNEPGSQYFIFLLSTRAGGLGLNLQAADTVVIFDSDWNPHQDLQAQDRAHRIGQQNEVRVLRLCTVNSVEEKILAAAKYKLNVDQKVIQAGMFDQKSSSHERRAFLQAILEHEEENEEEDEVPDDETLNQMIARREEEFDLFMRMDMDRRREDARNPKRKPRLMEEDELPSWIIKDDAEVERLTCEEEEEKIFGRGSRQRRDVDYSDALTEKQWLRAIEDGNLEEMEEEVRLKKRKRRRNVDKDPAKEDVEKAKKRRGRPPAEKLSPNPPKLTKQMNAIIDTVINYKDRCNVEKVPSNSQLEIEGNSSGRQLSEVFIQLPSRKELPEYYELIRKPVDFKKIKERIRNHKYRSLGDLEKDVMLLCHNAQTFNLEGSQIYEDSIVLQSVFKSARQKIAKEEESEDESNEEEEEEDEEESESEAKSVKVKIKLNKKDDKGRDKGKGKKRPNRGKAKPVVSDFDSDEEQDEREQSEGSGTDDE
Experimental: (§1) The HiBit assay was performed using engineered HT1080 CRISPR knock-in cell utilizing the Nano-Glo HiBiT Lytic Detection System from Promega, Cat #N3040. Compounds were transferred, 25 nL DMSO or test compounds (final DMSO @ 0.1%) to intermediate plates (Corning3570) using ECHO550. Cells were seeded onto compounds at 2000 cells/25 μL/well and incubated for 6 hrs in a tissue culture incubator at 37° C. and 5% CO2. The LgBiT Protein was diluted at 1:100 and the Nano-Glo® HiBIT Lytic Substrate 1:50 into an appropriate volume of room temperature using the Nano-Glo® HiBiT Lytic Buffer. At the end of compound incubation time, 15 ul of the detection reagent was added to each well (without LgBiT for negative control wells) using the Thermo Scientific multidrop combi. The plate was shaken for 10 mins at RT using Combi. After briefly centrifugation (2000 rpm 1 mins), plate was read on Envision (Ultrasensitive luminescence model).

[2] = biological target: SMARCA4 (Homo sapiens, UniProt P51532); assay: HiBit assay in engineered HT1080 CRISPR knock-in cell, 6 hrs (B series), SMARCA4; format: cell-based; conditions: 6 hrs incubation; for DC50: HT1080 CRISPR knock-in cells, read-out: SMARC A4 HT1080 HiBit DC50; for Dmax: HT-1080, HT1080 CRISPR knock-in cells, read-out: SMARC A4 HT1080 HiBit Dmax(%)
Sequence of SMARCA4 (P51532 whole entry): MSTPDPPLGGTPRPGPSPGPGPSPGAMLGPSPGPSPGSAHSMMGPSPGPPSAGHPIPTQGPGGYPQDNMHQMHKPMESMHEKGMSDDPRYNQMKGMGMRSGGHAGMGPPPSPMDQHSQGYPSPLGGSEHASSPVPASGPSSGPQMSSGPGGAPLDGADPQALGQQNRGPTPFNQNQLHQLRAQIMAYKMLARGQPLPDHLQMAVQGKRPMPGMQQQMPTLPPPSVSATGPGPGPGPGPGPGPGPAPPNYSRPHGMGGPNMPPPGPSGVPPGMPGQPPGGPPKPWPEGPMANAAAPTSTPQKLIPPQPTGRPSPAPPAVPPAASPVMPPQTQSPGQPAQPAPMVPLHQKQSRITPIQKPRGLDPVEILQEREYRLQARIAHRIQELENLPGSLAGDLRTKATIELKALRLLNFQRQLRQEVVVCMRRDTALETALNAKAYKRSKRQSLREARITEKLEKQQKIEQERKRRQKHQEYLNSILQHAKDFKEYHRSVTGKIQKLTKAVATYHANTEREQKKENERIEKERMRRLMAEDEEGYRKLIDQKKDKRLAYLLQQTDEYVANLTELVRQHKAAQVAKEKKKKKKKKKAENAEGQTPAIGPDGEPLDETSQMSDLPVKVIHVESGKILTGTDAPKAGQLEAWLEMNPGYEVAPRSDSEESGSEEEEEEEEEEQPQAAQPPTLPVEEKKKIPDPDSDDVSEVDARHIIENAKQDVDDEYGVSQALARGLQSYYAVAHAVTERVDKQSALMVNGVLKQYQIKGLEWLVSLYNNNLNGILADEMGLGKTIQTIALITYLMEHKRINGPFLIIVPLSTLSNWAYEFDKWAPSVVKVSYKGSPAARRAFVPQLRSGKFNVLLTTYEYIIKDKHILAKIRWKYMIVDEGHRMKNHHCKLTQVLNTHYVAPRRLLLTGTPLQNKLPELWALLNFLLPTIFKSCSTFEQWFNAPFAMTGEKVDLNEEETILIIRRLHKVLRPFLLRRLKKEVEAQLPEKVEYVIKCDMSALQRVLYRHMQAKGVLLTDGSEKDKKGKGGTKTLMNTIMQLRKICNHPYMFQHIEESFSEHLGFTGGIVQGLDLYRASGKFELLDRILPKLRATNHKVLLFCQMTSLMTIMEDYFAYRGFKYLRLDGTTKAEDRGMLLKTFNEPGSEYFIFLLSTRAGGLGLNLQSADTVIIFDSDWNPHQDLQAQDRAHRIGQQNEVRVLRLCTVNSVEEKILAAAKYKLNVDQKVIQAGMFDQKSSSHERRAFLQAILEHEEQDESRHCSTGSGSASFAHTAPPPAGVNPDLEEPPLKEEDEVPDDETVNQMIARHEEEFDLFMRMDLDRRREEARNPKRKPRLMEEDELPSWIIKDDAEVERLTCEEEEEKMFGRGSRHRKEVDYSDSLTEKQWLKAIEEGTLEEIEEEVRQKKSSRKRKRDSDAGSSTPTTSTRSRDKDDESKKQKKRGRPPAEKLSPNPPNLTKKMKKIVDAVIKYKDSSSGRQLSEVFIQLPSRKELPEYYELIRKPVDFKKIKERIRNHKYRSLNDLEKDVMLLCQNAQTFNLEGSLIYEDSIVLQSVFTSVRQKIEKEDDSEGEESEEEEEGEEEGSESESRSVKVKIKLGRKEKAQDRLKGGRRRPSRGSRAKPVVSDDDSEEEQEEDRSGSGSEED
Experimental: as §1

Row | DC50 [1] [µM] | Dmax [1] [%] | DC50 [2] [µM] | Dmax [2] [%] | Structure (SMILES)
1 | < 0.1 | > 90 | < 0.1 | 70 to 90 | Cc1cc(-c2scnc2C)ccc1[C@H](C)NC(=O)[C@@H]1C[C@@H](O)CN1C(=O)[C@@H](n1cc([C@H]2CC[C@H](CN3CCC(c4ccc5c(c4)-n4c(nc(=O)c6c(Cl)cccc64)C5(C)C)CC3)CC2)nn1)C(C)(C)C [Compound B149, (2S,4R)-1-((S)-2-(4-((1r,4S)-4-((4-(4-chloro-7,7-dimethyl-5-oxo-5,7-dihydroindolo[1,2-a]quinazolin-10-yl)piperidin-1-yl)methyl)cyclohexyl)-1H-1,2,3-triazol-1-yl)-3,3-dimethylbutanoyl)-4-hydroxy-N-((S)-1-(2-methyl-4-(4-methylthiazol-5-yl)phenyl)ethyl)pyrrolidine-2-carboxamide]
2 | < 0.1 | > 90 | < 0.1 | 70 to 90 | Cc1nc(C)c(-c2ccc([C@H](C)NC(=O)[C@@H]3C[C@@H](O)CN3C(=O)[C@@H](n3cc([C@H]4CC[C@H](CN5CCC(c6ccc7c(c6)-n6c(nc(=O)c8c(Cl)cccc86)C7(C)C)CC5)CC4)nn3)C(C)(C)C)cc2)s1 [Compound B164, (2S,4R)-1-((S)-2-(4-((1r,4S)-4-((4-(4-chloro-7,7-dimethyl-5-oxo-5,7-dihydroindolo[1,2-a]quinazolin-10-yl)piperidin-1-yl)methyl)cyclohexyl)-1H-1,2,3-triazol-1-yl)-3,3-dimethylbutanoyl)-N-((S)-1-(4-(2,4-dimethylthiazol-5-yl)phenyl)ethyl)-4-hydroxypyrrolidine-2-carboxamide]

Continued, compound first:

Row | Structure (SMILES) | DC50 [1] [µM] | Dmax [1] [%] | DC50 [2] [µM] | Dmax [2] [%]
3 | Cc1ncsc1-c1ccc([C@H](C)NC(=O)[C@@H]2C[C@@H](O)CN2C(=O)[C@H](C(C)C)n2cc(C3CCC(CN4CCC(c5ccc6c(c5)C(C)(C)c5nc(=O)c7c(Cl)cccc7n5-6)CC4)CC3)nn2)cc1 (stereo partly drawn) [Compound B19, (2S,4R)-1-((S)-2-(4-(4-((4-(4-chloro-7,7-dimethyl-5-oxo-5,7-dihydroindolo[1,2-a]quinazolin-9-yl)piperidin-1-yl)methyl)cyclohexyl)-1H-1,2,3-triazol-1-yl)-3-methylbutanoyl)-4-hydroxy-N-((S)-1-(4-(4-methylthiazol-5-yl)phenyl)ethyl)pyrrolidine-2-carboxamide] | < 0.1 | > 90 | 0.1 to 0.5 | 70 to 90
4 | Cc1ncsc1-c1ccc([C@H](C)NC(=O)[C@@H]2C[C@@H](O)CN2C(=O)[C@H](C(C)C)n2cc(CCCCCN3CCC(c4ccc5c(c4)-n4c(nc(=O)c6c(Cl)cccc64)C5(C)C)CC3)nn2)cc1 [Compound B61, (2S,4R)-1-((S)-2-(4-(5-(4-(4-chloro-7,7-dimethyl-5-oxo-5,7-dihydroindolo[1,2-a]quinazolin-10-yl)piperidin-1-yl)pentyl)-1H-1,2,3-triazol-1-yl)-3-methylbutanoyl)-4-hydroxy-N-((S)-1-(4-(4-methylthiazol-5-yl)phenyl)ethyl)pyrrolidine-2-carboxamide] | < 0.1 | > 90 | < 0.1 | 70 to 90
5 | Cc1ncsc1-c1ccc([C@H](C)NC(=O)[C@@H]2C[C@@H](O)CN2C(=O)[C@H](c2cc(N3CCC(C(=O)N4CCC(c5ccc6c(c5)C(C)(C)c5nc(=O)c7c(Cl)cccc7n5-6)CC4)CC3)no2)C(C)C)cc1 [Compound B89, (2S,4R)-1-(2-(3-(4-(4-(4-chloro-7,7-dimethyl-5-oxo-5,7-dihydroindolo[1,2-a]quinazolin-9-yl)piperidine-1-carbonyl)piperidin-1-yl)isoxazol-5-yl)-3-methylbutanoyl)-4-hydroxy-N—((S)-1-(4-(4-methylthiazol-5-yl)phenyl)ethyl)pyrrolidine-2-carboxamide] | < 0.1 | > 90 | 0.1 to 0.5 | > 90
